The values below are quoted from earlier work in patent US9062086B2, “N-acetyl L-cysteine chelates and methods for making and using the same” (Viva Pharmaceutical, Inc., priority 2013, dated 2015).

SMILES strings stand for the structures.

Series [1] addresses c-Glutamylcysteine synthetase (Homo sapiens, UniProt P48506). The conditions noted are these: read-out: Ki (feedback inhibition by GSH); background statement.
The conditions of series [2]: much higher than NAC; background statement.

c-Glutamylcysteine synthetase, sequence (P48506 whole entry): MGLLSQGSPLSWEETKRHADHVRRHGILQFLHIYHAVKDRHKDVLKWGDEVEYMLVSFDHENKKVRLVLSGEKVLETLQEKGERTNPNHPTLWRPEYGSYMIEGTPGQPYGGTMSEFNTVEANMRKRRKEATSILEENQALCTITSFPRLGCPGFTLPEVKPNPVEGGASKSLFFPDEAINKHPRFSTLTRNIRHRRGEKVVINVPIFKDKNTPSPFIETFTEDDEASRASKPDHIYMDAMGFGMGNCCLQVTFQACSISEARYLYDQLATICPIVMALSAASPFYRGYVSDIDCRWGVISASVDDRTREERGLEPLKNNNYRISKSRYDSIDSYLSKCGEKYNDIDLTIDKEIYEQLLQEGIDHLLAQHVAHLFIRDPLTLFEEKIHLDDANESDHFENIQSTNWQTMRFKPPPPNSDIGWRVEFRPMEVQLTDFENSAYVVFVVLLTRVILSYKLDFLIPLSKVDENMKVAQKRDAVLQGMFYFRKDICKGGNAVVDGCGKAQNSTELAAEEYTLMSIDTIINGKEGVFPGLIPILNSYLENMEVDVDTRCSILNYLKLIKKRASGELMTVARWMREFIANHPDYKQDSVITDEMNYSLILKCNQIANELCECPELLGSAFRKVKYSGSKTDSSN

Regarding `N[C@@H](CCC(=O)N[C@@H](CS)C(=O)NCC(=O)O)C(=O)O` [GSH, glutathione], in series [1], the Ki is roughly 1500 µM.

Turning to `CCOC(=O)[C@H](CS)NC(C)=O` [NACET, N-acetylcysteine ethyl ester], the bioavailability result in series [2] is listed as “around 60%”.

One may read the Ki as the dissociation constant of the complex between target and ligand, obtained from inhibition or displacement.
